Laboratory results as given in patent US7635572B2, “Methods for conducting assays for enzyme activity on protein microarrays” (Life Technologies Corporation, priority 2004, dated 2009).

Key:
Assay in all cases: Further analysis of a plurality of inhibitors and a plurality of kinases on microarray (Example IX, Table 5);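 note: inhibition of each kinase by the inhibitors is given as a qualitative level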;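 for Inhibition level, TGFBR2: level 0 none or unclear then 1 little or marginal then 2 substantial inhibition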
Format in all cases: biochemical
[1] = molecular target: T1, plurality of kinases (Table 5) (Homo sapiens, UniProt P29323); conditions: plate E5
T1 sequence (P29323 19-1055): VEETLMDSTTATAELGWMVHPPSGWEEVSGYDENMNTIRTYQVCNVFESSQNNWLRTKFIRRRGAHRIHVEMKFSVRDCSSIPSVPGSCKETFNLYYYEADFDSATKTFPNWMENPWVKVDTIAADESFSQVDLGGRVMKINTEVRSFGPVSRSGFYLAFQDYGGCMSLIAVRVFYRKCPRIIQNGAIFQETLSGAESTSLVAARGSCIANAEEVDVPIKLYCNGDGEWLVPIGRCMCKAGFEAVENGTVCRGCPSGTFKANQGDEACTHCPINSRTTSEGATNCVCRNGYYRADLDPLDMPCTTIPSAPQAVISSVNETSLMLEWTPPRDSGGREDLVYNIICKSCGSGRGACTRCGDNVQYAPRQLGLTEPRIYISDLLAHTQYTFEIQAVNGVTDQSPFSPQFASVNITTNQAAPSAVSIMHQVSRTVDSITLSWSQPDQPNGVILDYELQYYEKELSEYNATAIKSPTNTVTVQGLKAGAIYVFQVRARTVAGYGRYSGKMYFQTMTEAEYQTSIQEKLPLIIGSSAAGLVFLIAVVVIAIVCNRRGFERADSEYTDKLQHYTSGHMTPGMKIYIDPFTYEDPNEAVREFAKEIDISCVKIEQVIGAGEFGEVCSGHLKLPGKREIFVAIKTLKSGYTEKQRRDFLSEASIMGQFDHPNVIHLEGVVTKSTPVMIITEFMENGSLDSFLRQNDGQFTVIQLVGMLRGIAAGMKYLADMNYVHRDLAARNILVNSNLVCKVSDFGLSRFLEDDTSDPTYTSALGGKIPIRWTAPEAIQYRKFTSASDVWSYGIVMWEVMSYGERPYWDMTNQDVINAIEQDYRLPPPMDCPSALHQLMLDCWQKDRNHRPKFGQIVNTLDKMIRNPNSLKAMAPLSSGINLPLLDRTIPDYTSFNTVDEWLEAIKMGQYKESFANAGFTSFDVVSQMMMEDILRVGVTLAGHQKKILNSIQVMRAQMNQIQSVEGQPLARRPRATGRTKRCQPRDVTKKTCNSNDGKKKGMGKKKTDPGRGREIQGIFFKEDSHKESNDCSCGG

[2] = molecular target: plurality of kinases (Table 5) (Homo sapiens, UniProt P37173); conditions: plate C7
[3] = molecular target: plurality of kinases (Table 5) (Homo sapiens, UniProt O75716); conditions: plate C3
[4] = molecular target: T2, plurality of kinases (Table 5) (Homo sapiens, UniProt Q12866); conditions: plate B11; inhibitor 100 uM
T2 sequence (Q12866 21-999): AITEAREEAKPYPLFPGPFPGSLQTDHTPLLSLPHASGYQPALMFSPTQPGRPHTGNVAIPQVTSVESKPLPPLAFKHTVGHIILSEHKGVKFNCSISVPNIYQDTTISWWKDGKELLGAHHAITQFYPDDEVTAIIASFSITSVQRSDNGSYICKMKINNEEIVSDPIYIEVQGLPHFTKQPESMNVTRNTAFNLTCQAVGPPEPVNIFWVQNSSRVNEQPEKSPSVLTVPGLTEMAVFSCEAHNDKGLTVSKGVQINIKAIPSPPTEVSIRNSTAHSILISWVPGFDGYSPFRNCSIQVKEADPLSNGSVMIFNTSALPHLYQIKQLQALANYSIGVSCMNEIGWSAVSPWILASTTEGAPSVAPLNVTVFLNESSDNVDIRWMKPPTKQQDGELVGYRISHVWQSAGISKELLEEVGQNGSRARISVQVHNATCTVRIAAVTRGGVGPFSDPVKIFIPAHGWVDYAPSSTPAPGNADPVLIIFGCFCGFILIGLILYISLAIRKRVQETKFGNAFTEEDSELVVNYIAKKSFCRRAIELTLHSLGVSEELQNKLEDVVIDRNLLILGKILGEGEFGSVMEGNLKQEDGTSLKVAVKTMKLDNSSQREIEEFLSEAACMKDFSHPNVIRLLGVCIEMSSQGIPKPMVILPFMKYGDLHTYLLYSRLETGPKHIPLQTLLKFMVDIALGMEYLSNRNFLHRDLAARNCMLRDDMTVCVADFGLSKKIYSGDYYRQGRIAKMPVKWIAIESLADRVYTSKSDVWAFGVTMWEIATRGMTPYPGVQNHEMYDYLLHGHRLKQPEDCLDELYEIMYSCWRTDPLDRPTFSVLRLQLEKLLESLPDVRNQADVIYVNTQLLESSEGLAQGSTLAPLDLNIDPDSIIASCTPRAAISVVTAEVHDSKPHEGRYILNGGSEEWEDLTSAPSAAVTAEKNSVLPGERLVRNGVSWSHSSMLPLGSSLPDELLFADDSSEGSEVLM

Chain of plurality of kinases (Table 5) (Homo sapiens, UniProt O75716) (O75716 whole entry): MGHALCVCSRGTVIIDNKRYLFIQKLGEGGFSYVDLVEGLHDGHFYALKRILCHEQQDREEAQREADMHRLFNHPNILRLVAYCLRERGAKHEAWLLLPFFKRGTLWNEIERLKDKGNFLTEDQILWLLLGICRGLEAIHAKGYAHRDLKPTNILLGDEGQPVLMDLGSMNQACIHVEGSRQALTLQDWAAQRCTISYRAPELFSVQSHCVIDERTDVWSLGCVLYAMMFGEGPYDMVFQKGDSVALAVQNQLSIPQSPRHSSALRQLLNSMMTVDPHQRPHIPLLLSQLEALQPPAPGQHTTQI
Chain of plurality of kinases (Table 5) (Homo sapiens, UniProt P37173) (P37173 23-567): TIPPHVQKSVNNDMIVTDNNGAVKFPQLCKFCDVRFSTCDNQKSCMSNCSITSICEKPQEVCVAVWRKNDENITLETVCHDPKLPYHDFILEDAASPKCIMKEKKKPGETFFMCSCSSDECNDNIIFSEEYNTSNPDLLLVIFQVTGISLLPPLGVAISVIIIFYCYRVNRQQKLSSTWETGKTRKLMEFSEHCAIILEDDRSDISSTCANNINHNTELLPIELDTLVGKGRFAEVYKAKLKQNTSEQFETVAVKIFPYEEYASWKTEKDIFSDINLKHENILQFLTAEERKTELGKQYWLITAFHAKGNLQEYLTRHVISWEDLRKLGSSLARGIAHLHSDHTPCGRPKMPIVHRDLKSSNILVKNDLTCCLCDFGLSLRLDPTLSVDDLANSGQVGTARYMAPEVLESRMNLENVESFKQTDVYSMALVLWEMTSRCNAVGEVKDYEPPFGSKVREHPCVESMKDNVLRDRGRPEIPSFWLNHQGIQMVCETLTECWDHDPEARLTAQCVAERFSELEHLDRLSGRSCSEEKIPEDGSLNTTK

Row | Inhibition level, EPHB2 ([1]; Genistein <3.7 mM) | Inhibition level, TGFBR2 ([2]; Genistein <3.7 mM) | Inhibition level, STK16 ([3]; Genistein <3.7 mM) | Inhibition level, EPHB2 ([1]; Ro-31-8220 90 uM) | Inhibition level, TGFBR2 ([2]; Ro-31-8220 90 uM) | Inhibition level, STK16 ([3]; Ro-31-8220 90 uM) | SMILES | Inhibition level, EPHB2 ([1]; inhibitor 100 uM) | Inhibition level, TGFBR2 ([2]; inhibitor 100 uM) | Inhibition level, STK16 ([3]; inhibitor 100 uM) | Inhibition level, MERTK [4] | Inhibition level, TGFBR2 ([2]; Staurosporine 21.5 uM) | Inhibition level, STK16 ([3]; Staurosporine 21.5 uM)
1 | – | – | – | – | – | – | N#C/C(=C/c1ccc(O)c(O)c1)C(=O)NCc1ccccc1 [AG 490] | 2 | 2 | 0 | 2 | – | –
2 | – | – | – | – | – | – | COc1cc2ncnc(Nc3cccc(Cl)c3)c2cc1OC [AG 1478] | 2 | 2 | 0 | 2 | – | –
3 | 0 | 1 | 0 | – | – | – | O=c1c(-c2ccc(O)cc2)coc2cc(O)cc(O)c12 [Genistein] | 2 | 2 | 0 | 2 | – | –
4 | – | – | – | – | – | – | O=S(=O)(NCCNC/C=C/c1ccc(Br)cc1)c1cccc2cnccc12 [H-89] | 2 | 2 | 2 | 2 | – | –
5 | – | – | – | – | – | – | CC(C)(C)n1nc(-c2ccc(Cl)cc2)c2c(N)ncnc21 [PP2] | 2 | 2 | 2 | 2 | – | –
6 | – | – | – | – | – | – | O=c1c(O)c(-c2ccc(O)c(O)c2)oc2cc(O)cc(O)c12 [Quercetin] | 2 | 0 | 0 | 1 | – | –
7 | – | – | – | 0 | 2 | 2 | Cn1cc(C2=C(c3cn(CCCSC(=N)N)c4ccccc34)C(=O)NC2=O)c2ccccc21 [Ro-31-8220] | 2 | 2 | 1 | 2 | – | –
8 | – | – | – | – | – | – | CC(=O)c1c(O)c(C)c(O)c(Cc2c(O)c3c(c(C(=O)/C=C/c4ccccc4)c2O)OC(C)(C)C=C3)c1O [Rottlerin (Mallotoxin)] | 2 | 2 | 0 | 2 | – | –
9 | – | – | – | – | – | – | CN[C@@H]1C[C@H]2O[C@@](C)([C@@H]1OC)n1c3ccccc3c3c4c(c5c6ccccc6n2c5c31)C(=O)NC4 [Staurosporine] | – | – | – | – | 2 | 2
